Test results published in patent US12698474B2, “B-cell cultivation method” (priority 2017, dated 2026).

Test system: B-cells obtained from a rabbit immunized with human serum albumin (HSA)
Assay: Co-cultivation of single deposited B-cells with EL-4 B5 feeder cells, detection of antigen-specific (anti-HSA) IgG by ELISA;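 on HSA+ wells [% IgG+]: relative ranking scale running from o (lowest) to +++++ (highest)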;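 on HSA+ wells [% total]: relative ranking scale running from o (lowest) to +++++ (highest)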
Format: cell-based
Protocol: In more detail, NZW rabbits, 12-16 weeks old, were immunized with 400 μg recombinant human serum albumin protein (HSA; CAS RN 70024-90-7; Sigma), emulsified with complete Freund's adjuvant, at day 0 by intradermal application, followed by 200 μg HSA emulsified with complete or incomplete Freund's adjuvant at weeks 1, 2, 6, 10 and 23, by alternating intramuscular and subcutaneous injections.
Generally, antibodies produced by single deposited and co-cultivated B-cells or from B-cells obtained from an immunized experimental animal can be characterized with respect to specific antigen binding. The ELISA was performed at room temperature and the ELISA-solution was incubated between the individual steps on a shaker at 20×g. In the first step the antigen was bound to the wells of a 96-well multi well plate. If the antigen was a protein it had been diluted in coating buffer and applied directly to the plate. Peptide antigens were bound via the specific binding pair biotin/streptavidin. The wells of the multi well plate can be already coated with soluble CroteinC (CrC) by the manufacturer. If not, the wells were incubated after the immobilization of the antigen with 200 μl blocking buffer. After the incubation with 100 μl antigen solution per well (pre-coated multi well plate) or 200 μl blocking buffer, respectively, non-bound antigen or blocking buffer was removed by washing with wash buffer. The diluted B-cell supernatants were added in a volume of 100 μl per well and incubated. After the incubation the wells were washed. Afterwards the detection antibody was added in a volume of 100 μl per well. The antibody can be either conjugated to horseradish peroxidase or labeled with biotin. The detection antibody was determined with a streptavidin-horseradish peroxidase conjugate. After the incubation the multi well plate was washed and afterwards 50 μl of a substrate solution containing 3,3′,5,5′ tetramethyl benzidine (TMB) were added per well and incubated for a period as given in Table X. The enzymatic reaction was stopped by the addition of 50 μl sulfuric acid and the optical density was determined at 450 nm and 680 nm with a photometer (Rainbow Thermo ELISA Reader) and the Xread plus-software.
Specifically, the assay was performed at room temperature (RT) on 384-well Maxisorp microtiter plates (Thermo Scientific) with PBS (phosphate buffered saline) buffer supplemented with 0.5% Gelatine and 0.025% Tween V-20. The plates were coated with 0.5 μg/ml of human serum albumin (HSA, Sigma-Aldrich) for at least 2 hours to overnight. After washing (3×) with PBST (PBS with 0.1% Tween®-20) buffer the wells were blocked with PBS with 0.5% Gelatine and 0.1% Tween®-20. Again, the plates were washed 3× and afterwards dilutions of B-cell supernatants were added. After an incubation of 60 min and 3 washing steps with PBST a 1:4000 dilution of a HRP-conjugated anti-rabbit IgG antibody (Amersham) was transferred to the wells and incubated for 60 min. Finally, the plates were repeatedly washed (6×) with PBST and developed with BM Blue® HRP substrate solution for 30 min. Absorbance was measured at 392-405 nm.
Single cell sorted B-cells were cultured in 96-well plates with 200 μl/well EL-4 B5 medium with Pansorbin Cells (SAC) (Calbiochem (Merck), Darmstadt, Deutschland), EL-4 B5 cells (5×10^4/well) and rabbit thymocyte supernatant (TSN) or cytokine mix (CM) with PMA, respectively, for 7 days at 37° C. in an atmosphere of 5% CO2 in the incubator. B-cell culture supernatants were removed for screening and the cells harvested immediately for variable region gene cloning or frozen at −80° C. in 100 μl RLT buffer (Qiagen, Hilden, Germany).

SMILES: CCCCCCCCCCCCCC(=O)O[C@@H]1[C@@H](C)[C@@]2(O)[C@@H](C=C(CO)C[C@]3(O)C(=O)C(C)=C[C@@H]23)[C@@H]2C(C)(C)[C@]12OC(C)=O [PMA, (1aR,1bS,4aR,7aS,7bS,8R,9R,9aS)-9a-(acetyloxy)-4a,7b-dihydroxy-3-(hydroxymethyl)-1,1,6,8-tetramethyl-5-oxo-1a,1b,4,4a,5,7a,7b,8,9,9a-decahydro-H-cyclopropa[3,4]benzo[1,2-e]azulen-9-yl myristate]
- HSA+ wells [% IgG+] (PMA 0.002 ng/ml, 0.1×CM): ++
- HSA+ wells [% total] (PMA 0.002 ng/ml, 0.1×CM): +
- HSA+ wells [% IgG+] (PMA 0.011 ng/ml, 0.032×CM): +++++
- HSA+ wells [% total] (PMA 0.011 ng/ml, 0.032×CM): +++
- HSA+ wells [% IgG+] (PMA 0.011 ng/ml, 0.1×CM): +++++
- HSA+ wells [% total] (PMA 0.011 ng/ml, 0.1×CM): +++
- HSA+ wells [% IgG+] (PMA 0.054 ng/ml, 0.1×CM): +++
- HSA+ wells [% total] (PMA 0.054 ng/ml, 0.1×CM): +++
- Number of anti-HSA antibody positive wells [% of IgG positive wells] (PMA 0.095 ng/ml, CM 1x): 62.5 % of IgG positive wells
- Number of anti-HSA antibody positive wells [% of total] (PMA 0.095 ng/ml, CM 1x): 23.8 % of total
- HSA+ wells [% IgG+] (PMA 0.127 ng/ml, 0.032×CM): ++
- HSA+ wells [% IgG+] (PMA 0.127 ng/ml, 0.1×CM): ++
- HSA+ wells [% total] (PMA 0.127 ng/ml, 0.1×CM): +
- HSA+ wells [% IgG+] (PMA 0.225 ng/ml, 0.1×CM): ++++
- HSA+ wells [% total] (PMA 0.225 ng/ml, 0.1×CM): +++++
- HSA+ wells [% IgG+] (PMA 0.3 ng/ml, 0.032×CM): +++
- HSA+ wells [% total] (PMA 0.3 ng/ml, 0.032×CM): ++++
- Number of anti-HSA antibody positive wells [% of IgG positive wells] (PMA 0.3 ng/ml, CM 0.01x): 41.4 % of IgG positive wells
- Number of anti-HSA antibody positive wells [% of total] (PMA 0.3 ng/ml, CM 0.01x): 28.6 % of total
- Number of anti-HSA antibody positive wells [% of IgG positive wells] (PMA 0.3 ng/ml, CM 0.032x): 39.0 % of IgG positive wells
- Number of anti-HSA antibody positive wells [% of total] (PMA 0.3 ng/ml, CM 0.032x): 27.4 % of total
- Number of anti-HSA antibody positive wells [% of IgG positive wells] (PMA 0.3 ng/ml, CM 0.1x): 42.1 % of IgG positive wells
- Number of anti-HSA antibody positive wells [% of total] (PMA 0.3 ng/ml, CM 0.1x): 28.6 % of total
- Number of anti-HSA antibody positive wells [% of IgG positive wells] (PMA 0.3 ng/ml, CM 0.32x): 39.6 % of IgG positive wells
- Number of anti-HSA antibody positive wells [% of total] (PMA 0.3 ng/ml, CM 0.32x): 22.6 % of total
- Number of anti-HSA antibody positive wells [% of IgG positive wells] (PMA 0.3 ng/ml, CM 1x): 20.0 % of IgG positive wells
- Number of anti-HSA antibody positive wells [% of total] (PMA 0.3 ng/ml, CM 1x): 3.6 % of total
- HSA+ wells [% IgG+] (PMA 0.534 ng/ml, 0.032×CM): +++
- HSA+ wells [% total] (PMA 0.534 ng/ml, 0.032×CM): ++
- HSA+ wells [% IgG+] (PMA 0.534 ng/ml, 0.1×CM): +++
- HSA+ wells [% total] (PMA 0.534 ng/ml, 0.1×CM): +++
- HSA+ wells [% IgG+] (PMA 0.535 ng/ml, without CM): +++++
- HSA+ wells [% total] (PMA 0.535 ng/ml, without CM): +
- HSA+ wells [% total] (PMA 0.712 ng/ml, 0.032×CM): +
- HSA+ wells [% IgG+] (PMA 0.712 ng/ml, 0.1×CM): ++++
- HSA+ wells [% total] (PMA 0.712 ng/ml, 0.1×CM): +++
- HSA+ wells [% IgG+] (PMA 0.949 ng/ml, 0.032×CM): +++
- HSA+ wells [% total] (PMA 0.949 ng/ml, 0.032×CM): +++++
- HSA+ wells [% IgG+] (PMA 0.949 ng/ml, 0.1×CM): +
- Number of anti-HSA antibody positive wells [% of IgG positive wells] (PMA 0.95 ng/ml, CM 0x): 66.7 % of IgG positive wells
- Number of anti-HSA antibody positive wells [% of total] (PMA 0.95 ng/ml, CM 0x): 19.0 % of total
- Number of anti-HSA antibody positive wells [% of IgG positive wells] (PMA 0.95 ng/ml, CM 0.01x): 39.7 % of IgG positive wells
- Number of anti-HSA antibody positive wells [% of total] (PMA 0.95 ng/ml, CM 0.01x): 27.4 % of total
- Number of anti-HSA antibody positive wells [% of IgG positive wells] (PMA 0.95 ng/ml, CM 0.032x): 45.6 % of IgG positive wells
- Number of anti-HSA antibody positive wells [% of total] (PMA 0.95 ng/ml, CM 0.032x): 31.0 % of total
- Number of anti-HSA antibody positive wells [% of IgG positive wells] (PMA 0.95 ng/ml, CM 0.1x): 54.8 % of IgG positive wells
- Number of anti-HSA antibody positive wells [% of total] (PMA 0.95 ng/ml, CM 0.1x): 27.4 % of total
- Number of anti-HSA antibody positive wells [% of IgG positive wells] (PMA 0.95 ng/ml, CM 0.32x): 30.0 % of IgG positive wells
- Number of anti-HSA antibody positive wells [% of total] (PMA 0.95 ng/ml, CM 0.32x): 7.1 % of total
- Number of anti-HSA antibody positive wells [% of IgG positive wells] (PMA 0.95 ng/ml, CM 1x): 42.9 % of IgG positive wells
- Number of anti-HSA antibody positive wells [% of total] (PMA 0.95 ng/ml, CM 1x): 3.6 % of total
- HSA+ wells [% IgG+] (PMA 0.95 ng/ml, without CM): +++
- HSA+ wells [% IgG+] (PMA 1.266 ng/ml, 0.032×CM): ++++
- HSA+ wells [% total] (PMA 1.266 ng/ml, 0.032×CM): +++++
- HSA+ wells [% IgG+] (PMA 1.688 ng/ml, 0.032×CM): +
- HSA+ wells [% total] (PMA 1.688 ng/ml, 0.032×CM): +++++
- HSA+ wells [% IgG+] (PMA 1.688 ng/ml, without CM): +++++
- HSA+ wells [% total] (PMA 1.688 ng/ml, without CM): +++++
- HSA+ wells [% total] (PMA 2.25 ng/ml, 0.032×CM): ++
- HSA+ wells [% IgG+] (PMA 2.251 ng/ml, without CM): +++
- HSA+ wells [% total] (PMA 2.251 ng/ml, without CM): +++++
- Number of anti-HSA antibody positive wells [% of IgG positive wells] (PMA 3 ng/ml, CM 0.01x): 48.3 % of IgG positive wells
- Number of anti-HSA antibody positive wells [% of total] (PMA 3 ng/ml, CM 0.01x): 33.3 % of total
- Number of anti-HSA antibody positive wells [% of IgG positive wells] (PMA 3 ng/ml, CM 0.032x): 47.5 % of IgG positive wells
- Number of anti-HSA antibody positive wells [% of total] (PMA 3 ng/ml, CM 0.032x): 34.5 % of total
- Number of anti-HSA antibody positive wells [% of IgG positive wells] (PMA 3 ng/ml, CM 0.1x): 20.0 % of IgG positive wells
- Number of anti-HSA antibody positive wells [% of total] (PMA 3 ng/ml, CM 0.1x): 7.1 % of total
- Number of anti-HSA antibody positive wells [% of IgG positive wells] (PMA 3 ng/ml, CM 0.32x): 27.3 % of IgG positive wells
- Number of anti-HSA antibody positive wells [% of total] (PMA 3 ng/ml, CM 0.32x): 3.6 % of total
- Number of anti-HSA antibody positive wells [% of IgG positive wells] (PMA 3 ng/ml, CM 1x): 45.5 % of IgG positive wells
- Number of anti-HSA antibody positive wells [% of total] (PMA 3 ng/ml, CM 1x): 6.0 % of total
- HSA+ wells [% total] (PMA 3.999 ng/ml, without CM): +
- HSA+ wells [% IgG+] (PMA 5.331 ng/ml, without CM): ++
- HSA+ wells [% total] (PMA 5.331 ng/ml, without CM): +++
- HSA+ wells [% IgG+] (PMA 7.106 ng/ml, without CM): +
- HSA+ wells [% total] (PMA 7.106 ng/ml, without CM): ++++
